Source: patent publication US10993959B2, “Methods and compositions for increasing the suppressive function of regulatory T-cells (Tregs)” (Regents of the University of Minnesota, priority 2015, dated 2021)
“Also recorded” adds a separate entry of the source.

Experiments:
PKC-θ/vimentin = biological target: T1, PKC-θ/vimentin (Mus musculus, UniProt Q02111); assay: confocal microscopy of PKC-θ and vimentin staining in activated Tregs; type: cell-based
T1 construct: endogenous in cells
Method: FIG. 8A are photographs of the results of experiments in which Tregs were pre-treated with DMSO (control), AEB071, or vimentin siRNA, then activated. PKC-θ and vimentin staining were analyzed by confocal microscopy.
Since PKC-θ localization and function appear to be linked, experiments were performed to understand whether PKC-θ inhibition modulated PKC-θ localization. Consistent with previous work, PKC-θ accumulated at the distal pole of control Tregs after 5 minutes of anti-CD3/CD28 mAb activation (FIG. 8A, top).

Tcon = assay: in vitro Treg suppression, Tcon type not specified; type: cell-based, mouse
Method: (§1) Lethally irradiated BALB/c mice were given 10e6 C57BL/6 bone marrow only (BM), or BM with 2e6 CD4+25−/CD8+25− Tcon cells without (BM+T) or with 1e6 Tregs treated with either DMSO (DMSO) or 10 μM AEB071 (AEB071) for 30 minutes. […] Tregs were treated with DMSO or AEB071 as above, and activated overnight with plate bound anti-CD3/28 and IL-2. […] […] Tregs were treated with DMSO or AEB071 and activated as above. […] Tregs were transfected with vimentin siRNA (vim) or control (GFP), and activated for 36 hours. CFSE-labeled Tcon were mixed with T-cell depleted splenocytes and soluble anti-CD3 mAb. Treg:Tcon ratios of 1:1-1:27 were plated and CFSE dilution assessed after 3 days.
On day 3 after transfection, CD4/8 Tcon and T-cell depleted splenoctyes were isolated for a suppression assay. CD4/CD8 Tcon were purified from spleen of CD45.1 C57BL/6 mice using negative selection with eBioscience biotinylated Ab (anti-CD19, B220, NK1.1, gamma-delta TCR) and StemCell technologies streptavidin RapidSphere technology. Once isolated, Tcon were labeled with CFSE (2.5 μM) for 5 minutes at room temperature with constant agitation.
Responder Tcon were provided with 0.75 μg/mL soluble anti-CD3 mAb. […]

[1] = test system: in vitro-expanded human Tregs; assay: phosphoproteomic screen with human Treg cells; type: cell-based
Method: Utilizing mass spectroscopy, a total of 12,452 phosphorylation sites were quantified from human Tregs. In order to determine significant differences between DMSO-treated and AEB071-treated Tregs, two experiments were performed concurrently: • Forward experiment: This experiment utilized heavy isotope-labeled Tregs treated with AEB071 and medium isotope-labeled Tregs treated with DMSO. • Reverse experiment: medium isotope-labeled Tregs treated with AEB071 and heavy isotope-labeled Tregs treated with DMSO.
After processing the raw spectra with Max Quant software, the positively identified phosphopeptides were analyzed using Persus software. Contaminating peptides and reverse database hits were filtered out and the peptide intensity values and normalized H/M ratios were log 2 transformed. The significances of the individual H/M ratios calculated using the Significance B test with a false discovery rate of 0.05 for the forward and reverse experiment separately.
Relying only on the Sig B test, the overlap between the two data sets was low with only 15% overlap. In order to improve the overlap between the two data sets, the data was filtered based on fold change (<1.5), consistency of ratios, phospho site localization probability (<75%), and the MaxQuant score (<75). By filtering the results, the overlap improved to 60%.

Tregs [2] = assay: flow cytometry of marker expression in activated Tregs; type: cell-based, mouse
Method: as §1
Bars show mean±SEM. *, p<0.05; **, P<0.01; ***, P<0.0001; ****, p<0.00001 (Student's t-tests or one-way ANOVA with Tukey's post-test).
Ratios of 0:1, 1:1, 1:3, 1:9 and 1:27 Treg:Teff were made. Four replicates of each ratio were made and plated in a 96-well, round bottom plate. After 3 days in culture, the cells from each well were harvested, washed with PBS and then stained with antibodies for flow cytometry analysis of CFSE dilution (proliferation) of CD4 and CD8 Tcon. The antibodies used were as follows: CD4-BV510, CD8-PE-ef610, CD25-BV605, Nrp1-PerCP-ef710, Lag3-APC, Fixable viability dye-APC-ef780, Foxp3-PE-Cy7, and Vimentin-PE.

Tregs [3] = assay: Treg metabolic activity (OCR, ECAR, BoDipyC1-C12 uptake); type: cell-based, mouse; conditions: AEB071 vs DMSO, after activation
Method: as §1
FIG. 9C is a graph showing basal and maximal oxygen consumption rate (OCR) and extracellular acidification rate (ECAR) measured after transfection. Tregs were transfected with either control (non-targeting) or vimentin siRNA. […] Bars show mean±SEM. Survival differences analyzed by log-rank test. *, p<0.05; **, P<0.01; ***, P<0.0001; ****, p<0.00001 (Student's t-tests or one-way ANOVA with Tukey's post-test).

acute GVHD = assay: mouse MHC class I/II disparate acute GVHD model; type: in vivo
Method: as §1
FIG. 9A is a graph showing the percent survival of recipients. Tregs were transfected with either control (non-targeting) or vimentin siRNA. Recipient mice were given BM alone, BM+Tcon (BM+T), or BM+Tcon+Tregs; Tregs pre-treated with control or vimentin siRNA. […] Bars show mean±SEM. Survival differences analyzed by log-rank test. *, p<0.05; **, P<0.01; ***, P<0.0001; ****, p<0.00001 (Student's t-tests or one-way ANOVA with Tukey's post-test).
FIG. 9B is a graph showing the clinical GVHD scores (0=no disease, 10=most severe disease) for recipients. Tregs were transfected with either control (non-targeting) or vimentin siRNA. Recipient mice were given BM alone, BM+Tcon (BM+T), or BM+Tcon+Tregs; Tregs pre-treated with control or vimentin siRNA. […] Bars show mean±SEM. Survival differences analyzed by log-rank test. *, p<0.05; **, P<0.01; ***, P<0.0001; ****, p<0.00001 (Student's t-tests or one-way ANOVA with Tukey's post-test).
As Tregs exert much of their protective effect against GVHD early in the course of the disease, proliferation of GVHD-causing conventional T-cells (Tcon) on D4 after transplant was analyzed. […] Multi-photon microscopy on D4 was performed after transplant using TEα-GFP Tcon, CD11c-eYFP antigen presenting cells (APCs) and wild-type Tregs. […]

[4] = test system: phosphorylated proteins in activated Tregs; assay: flow cytometry analysis of phosphorylated proteins (phosphoflow) in Tregs; type: cell-based, mouse
Method: In addition, the mTORC2-specific phosphorylation site on Akt, serine 473, was reduced, whereas the […] phosphorylation site, threonine 308, was unaltered. […] As both mTORC1 and mTORC2 are involved in T-cell metabolism, the effect of AEB071 treatment on Treg oxygen consumption rate (OCR) was investigated. […] Increased OCR has been associated with increased Treg function. […]
Since PKC-θ inhibition modulated Treg metabolism and mTORC2 function, experiments were performed to determine whether vimentin siRNA might have a similar effect. […] Since mTORC2 signaling was reduced after PKC-θ inhibition, it was hypothesized that mTORC2 activity also could be reduced after treatment with vimentin siRNA.

Tcon-APC interactions = assay: multi-photon microscopy on D4 after transplant; type: in vivo, mouse; conditions: AEB071-treated Tregs vs DMSO
Method: As Tregs exert much of their protective effect against GVHD early in the course of the disease, proliferation of GVHD-causing conventional T-cells (Tcon) on D4 after transplant was analyzed. […] Multi-photon microscopy on D4 was performed after transplant using TEα-GFP Tcon, CD11c-eYFP antigen presenting cells (APCs) and wild-type Tregs.

splenic Tregs = assay: flow cytometry of Tregs from acute GVHD recipients; type: in vivo, mouse; conditions: AEB071 vs DMSO treated Tregs isolated from acute GVHD mice
[5] = 10 μM AEB071 30 minutes vs DMSO, activated overnight with anti-CD3/28 and IL-2
[6] = PKC-θ inhibition (AEB071), activated Tregs

T1 sequence (Q02111 whole entry): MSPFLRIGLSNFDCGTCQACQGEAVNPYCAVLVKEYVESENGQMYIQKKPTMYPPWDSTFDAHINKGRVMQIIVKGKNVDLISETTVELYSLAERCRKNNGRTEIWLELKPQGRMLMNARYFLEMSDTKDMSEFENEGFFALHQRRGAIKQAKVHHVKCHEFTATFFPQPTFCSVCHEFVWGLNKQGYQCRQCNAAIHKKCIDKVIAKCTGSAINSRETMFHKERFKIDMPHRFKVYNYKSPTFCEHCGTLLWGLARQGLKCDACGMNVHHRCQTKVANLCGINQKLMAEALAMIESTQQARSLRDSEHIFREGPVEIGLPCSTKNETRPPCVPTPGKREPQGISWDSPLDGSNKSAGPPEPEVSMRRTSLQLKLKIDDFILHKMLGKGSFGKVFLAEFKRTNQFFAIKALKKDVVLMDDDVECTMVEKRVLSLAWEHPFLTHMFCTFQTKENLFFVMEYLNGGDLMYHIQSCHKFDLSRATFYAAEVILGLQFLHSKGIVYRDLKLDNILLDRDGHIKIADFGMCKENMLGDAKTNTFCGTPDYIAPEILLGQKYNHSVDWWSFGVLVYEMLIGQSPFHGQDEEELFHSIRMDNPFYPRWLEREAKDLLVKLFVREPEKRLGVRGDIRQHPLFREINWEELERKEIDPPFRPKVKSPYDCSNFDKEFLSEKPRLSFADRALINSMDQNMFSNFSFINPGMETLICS

Structure (SMILES): CN1CCN(c2nc(C3=C(c4c[nH]c5ccccc45)C(=O)NC3=O)c3ccccc3n2)CC1 [AEB071]
- interaction / overlap between vimentin and PKC-θ (PKC-θ/vimentin; AEB071-pre-treated Tregs after activation vs control): reduced the interaction
- PKC-θ localization (PKC-θ/vimentin; AEB071-pre-treated Tregs after anti-CD3/CD28 activation vs control): dispersed throughout the cell
- Treg function after AEB071-treatment of vimentin siRNA transfected Tregs (Tcon; AEB071 added to vimentin siRNA transfected Tregs): did not further augment
- effect of AEB071 treatment under antibody blockade of Nrp1 and Lag3 (Tcon; in vitro trans-well suppression assays): reduced the effect
- number of proteins with significant alterations in phosphorylation sites ([1]; AEB071 vs DMSO treated human Tregs): 72
- phosphorylation of adaptor molecule that links PKC-θ to vimentin (RLTPR) ([1]; AEB071 vs DMSO, b140: RLTPR serine 1226, PKC-theta consensus site): reduced phosphorylation
- surface expression of Lymphocyte activation gene 3 (Lag3) (Tregs [2]; [5]): significantly increased; also recorded: augmented expression
- surface expression of Neuropilin-1 (Nrp1) (Tregs [2]; [5]): significantly increased; also recorded: augmented expression
- GI homing molecule expression (Tregs [2]; AEB071 treatment): did not increase
- baseline Treg oxygen consumption rate (OCR) (Tregs [3]; time 0-19 min): significantly increased
- maximal Treg OCR (Tregs [3]; time 53-70 min): significantly increased
- GVHD severity (acute GVHD; Tregs treated 30 minutes with 10 μM AEB071 vs DMSO-treated Tregs): significantly better
- recipient survival / GVHD mortality (acute GVHD; Tregs treated 30 minutes with 10 μM AEB071 vs DMSO-treated Tregs, p=0.0036): significantly increased recipient survival; also recorded: significantly better
- Tcon proliferation on D4 after transplant (acute GVHD; mice given AEB071 treated Tregs vs DMSO treated Tregs): significant reduction
- PKC-θ auto-phosphorylation at Ser676 ([4]; AEB071 treatment, stated by comparison with vimentin siRNA): significantly reduced
- Akt phosphorylation at serine 473 (mTORC2-specific site) [4, 6]: reduced
- Akt phosphorylation at threonine 308 (mTORC1-specific site) [4, 6]: unaltered
- phosphorylation of mTORC2 target FoxO3a [4, 6]: reduced phosphorylation
- Tcon displacement from APCs (Tcon-APC interactions): significantly increased
- Tcon velocity (Tcon-APC interactions): significantly increased
- expression of Lag3 (splenic Tregs): augmented expression
- expression of Nrp1 (splenic Tregs): augmented expression
